# Assays:
# [1] = parallel artificial membrane permeability assay (PAMPA) of semaglutide formulations with permeation promoters; type: in vitro ADME; settings: Skin PAMPA, permeation promoters at the same concentration of 0.25% (w/v%)
# Method: 1.1. Test objective: to investigate the differences in in-vitro permeability of semaglutide having a concentration of 10 mM in pH7.4 […] buffer by using the PAMPA method after the addition of different types and proportions of permeation promoters. An appropriate amount of 10 mM semaglutide mother liquor was weighed and placed in a liquid phase injection vial, and different permeation promoters were weighed and added correspondingly according to types and proportions listed in Table 1; a magnetic stirrer was added; the magnetic stirrer was turned on to adjust a rotation speed to 650 rpm; and the temperature of the magnetic stirrer was kept at 37°C, followed by stirring for later use. Table 1 • Donor wells solutions were solutions of Formulations 1-20; • An acceptor wells solution was pH 7.4 Prisma HT buffer. • 1) PAMPA membrane hydration: a Hydration Solution (Pion) was prepared (used at room temperature); donor wells of a PAMPA plate were carefully removed; 200 μl of Hydration Solution was added to each well, and whether each empty surface forms a curved surface due to surface tension was observed; and acceptor wells of the PAMPA plate were covered carefully, while air bubbles were avoided on contact surfaces. The Hydration Solution was kept moist and hydrated overnight, and the hydrated membrane will appear translucent or have white spots. […]
# [2] = Compatibility/stability study: HPLC main peak purity and impurities after storage in the dark at 40°C and 50°C; type: physicochemical; settings: result in words
# Method: The changes in semaglutide content and impurities in a semaglutide solution, semaglutide+different permeation promoter solutions, and semaglutide+different bacteriostatic agent solutions were determined under HPLC conditions in Example 1 after being stored in the dark for 10 days (10 D) at 40°C and 50°C, and the results were shown in Table 7.
# The definitions of the hydrophilic impurities 1 and 2 and the hydrophobic impurity in Table 7 were shown in HPLC chromatograms of Formulations C1 to C4 shown in FIGS. 1-4 determined at 50°C on Day 10.
# As a control, main peak intensities of compositions J and K in CN116942612A at 50°C on Day 5 were determined using the same method, both of which were below 95%.
permeation promoting effect [1],protective effect on semaglutide (inhibited degradation) [2],Compound
better permeation promoting effects,,CCCCCCCCCCCCO[C@@H]1O[C@H](CO)[C@@H](O[C@H]2O[C@H](CO)[C@@H](O)[C@H](O)[C@H]2O)[C@H](O)[C@H]1O [dodecyl-β-D-maltoside]
better permeation promoting effects,,CCCCCCCCCCCC(=O)OCCOCCOCCOCCOCCOCCOCCOCCOCCOCCOCCOCCOCCOCCOCCOCCOCCOCCOCCOCCOCC(OCCOCCOCCOCCOCCOCCOCCOCCOCCOCCOCCOCCOCCOCCOCCOCCOCCOCCOCCOCCO)C1OCC(OCCOCCOCCOCCOCCOCCOCCOCCOCCOCCOCCOCCOCCOCCOCCOCCOCCOCCOCCOCCO)C1OCCOCCOCCOCCOCCOCCOCCOCCOCCOCCOCCOCCOCCOCCOCCOCCOCCOCCOCCOCCO (stereo not shown) [polysorbate-20]
,protective effect on semaglutide,benzalkonium chloride
better permeation promoting effects,,polyoxyethylene (8) dodecyl ether
